These results are taken from publication PMC12592400, “A unique inhibitor conformation selectively targets the DNA polymerase PolC of Gram-positive priority pathogens” (Nature Communications, 2025).

The target of one series is T1, E. faecium DnaE (Enterococcus faecium, UniProt Q3XYP9).
T1 sequence (Q3XYP9 1-1104): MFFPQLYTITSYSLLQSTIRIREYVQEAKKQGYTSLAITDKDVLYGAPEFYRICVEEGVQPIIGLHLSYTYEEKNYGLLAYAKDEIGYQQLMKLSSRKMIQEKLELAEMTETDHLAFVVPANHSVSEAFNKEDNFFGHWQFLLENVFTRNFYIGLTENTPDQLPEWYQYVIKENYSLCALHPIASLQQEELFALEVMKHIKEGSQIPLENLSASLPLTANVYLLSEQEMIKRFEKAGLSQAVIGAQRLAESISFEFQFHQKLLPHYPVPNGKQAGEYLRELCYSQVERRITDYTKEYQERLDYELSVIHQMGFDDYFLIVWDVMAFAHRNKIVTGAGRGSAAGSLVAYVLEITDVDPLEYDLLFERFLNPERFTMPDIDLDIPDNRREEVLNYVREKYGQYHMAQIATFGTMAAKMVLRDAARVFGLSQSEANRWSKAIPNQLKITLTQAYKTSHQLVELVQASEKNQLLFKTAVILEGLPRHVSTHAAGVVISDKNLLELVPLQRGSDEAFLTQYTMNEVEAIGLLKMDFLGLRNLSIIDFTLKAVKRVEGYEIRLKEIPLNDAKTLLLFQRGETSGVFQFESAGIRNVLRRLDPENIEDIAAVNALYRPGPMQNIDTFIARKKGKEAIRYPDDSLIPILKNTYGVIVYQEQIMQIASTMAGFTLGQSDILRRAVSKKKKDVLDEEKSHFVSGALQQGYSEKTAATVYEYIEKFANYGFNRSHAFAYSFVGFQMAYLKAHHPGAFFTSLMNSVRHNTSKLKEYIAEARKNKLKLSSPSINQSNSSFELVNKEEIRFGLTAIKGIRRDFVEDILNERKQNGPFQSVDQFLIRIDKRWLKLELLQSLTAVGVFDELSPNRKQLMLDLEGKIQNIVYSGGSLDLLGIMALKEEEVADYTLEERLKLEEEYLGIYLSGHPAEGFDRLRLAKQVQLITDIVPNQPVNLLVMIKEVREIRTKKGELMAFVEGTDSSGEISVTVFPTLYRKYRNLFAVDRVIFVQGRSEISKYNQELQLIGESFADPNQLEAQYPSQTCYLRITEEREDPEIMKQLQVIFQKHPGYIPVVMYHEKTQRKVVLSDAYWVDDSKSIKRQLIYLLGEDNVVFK
The series can be described thus: Real-time DNA primer extension assay. Format: biochemical. Particulars: for rate of activity (slope of fluorescence intensity change over time): Fig. 1f source data, E. faecium DnaE; for IC50: Fig. 1f, n = 3, ± SEM.

For series [1], the system named is C. difficile strain carrying a F1258L mutation. The series is described as follows: MIC of C. difficile strain obtained by one-step passage. The settings on record: Clostridioides difficile. Format: cell-based.
Series [2] concerns Clostridioides difficile infection. Also noted: method as in PMID 35862742, PMID 35134880. Particulars: patients cured of CDI through treatment with IBZ; cited from earlier work.
On the set-up of series [3]: method as in PMID 35134880, PMID 32892222. The settings on record: cited from earlier work.
The conditions of series [4]: cited from earlier work.
For the next series, the system named is E. faecium ATCC 700221. The series is described as follows: Frequency of resistance (FOR) study. It counts as cell-based, Enterococcus faecium. The settings on record: for CFU total count (48h): replicates 1-2; for Number of reduced susceptible colonies: Suppl. Table 2. How it is done:
Strains with reduced susceptibility to ACX compounds were generated by WuXi Apptec on behalf of Acurx Pharmaceuticals, Inc., using E. faecium ATCC 700221 as parental strain.
Agar MICs for the wild-type strain were determined on Blood agar (Huankai). Compounds and linezolid were dissolved in 100% DMSO and vancomycin in ultrapure water. Strains were inoculated onto agar plates, incubated at 37 °C for 20-24 h after which colonies were suspended in sterile 0.9% saline at different bacterial concentrations. 5 μL of bacterial suspensions was individually spotted on agar plates supplemented with compounds at different concentrations, resulting in final concentrations of 10^–1, 10^–2, 10^–3, 10^–4, 10^–5, 10^–6, and 10^–7 per spot. After incubation for 20-24 h, bacterial growth was assessed by visual inspection.
For frequency of resistance (FOR) studies, colonies from the agar plate were suspended into sterile 0.9% saline to get 10^8-10^9 CFU bacterial cells per mL. […] The suspensions were also serially diluted with 0.9% saline and spotted onto agar to determine the actual inoculum. All agar plates were incubated at 37 °C for 48 h. FOR was defined as colony number on each compound-containing plate per CFU number of actual inoculum. Resistant colonies were subcultured on the corresponding compound plates to confirm that colonies were resistant and stable.

“And” between values parts separate entries of the source, which are not always exact repeats. Equal values may be shown once.

Regarding `O=c1[nH]c(NCc2ccc(Cl)c(Cl)c2)nc2ncn(CCN3CCOCC3)c12` [IBZ, N^2-(3,4-dichlorobenzyl)-7-(2-[1-morpholinyl]ethyl)guanine], the “rate of activity (slope of fluorescence intensity change over time)” value on E. faecium DnaE (inhibitor 2.5 uM) is 49.8 and 49.1 and 50.9; on E. faecium DnaE (inhibitor 4 uM), 37.6 and 41.6 and 39.1; at E. faecium DnaE (inhibitor 12.5 uM), 40.9 and 43.1 and 37.2; at E. faecium DnaE (inhibitor 20 uM), 38.6 and 37.7 and 36.0; at E. faecium DnaE (inhibitor 30 uM) it was 35.7 and 37.2 and 30.7; on E. faecium DnaE (inhibitor 45 uM) it was 28.3 and 28.4 and 27.5. Further, the “rate of activity (slope of fluorescence intensity change over time)” value was 18.3 and 24.4 and 21.1 at E. faecium DnaE (inhibitor 67.5 uM); 19.9 and 17.8 and 14.2 on E. faecium DnaE (inhibitor 100 uM). Besides, the IC50 on E. faecium DnaE is 89.3 µM. Besides, the “inhibition towards E. faecium DnaE lower than PolC” value against E. faecium DnaE (in vitro, DnaE versus PolC) is on record as “~ seven-fold”. Further, the MIC in series [1] stood at 64 µg/mL. The “recurrence of CDI during the post-treatment study period” value in series [2] is “no recurrence was observed”. In series [3], the solubility entry was “low”. Besides, the absorption result in series [4] is “poorly absorbed”. Also, the faecal levels in series [4] was more than 1000 μg/g stool.
In the case of `CC(=O)NC[C@H]1CN(c2ccc(N3CCOCC3)c(F)c2)C(=O)O1` [LZD, linezolid], the “CFU total count (48h)” value was “TMTC” in the series on E. faecium ATCC 700221 (1x MIC (ACX-728 2, ACX-641 0.5, ACX-671 1, ACX-763 4, Linezolid 2 mg/L), inoculum 1.3E+07 CFU/plate); “TMTC” with E. faecium ATCC 700221 (1x MIC (ACX-728 2, ACX-641 0.5, ACX-671 1, ACX-763 4, Linezolid 2 mg/L), inoculum 1.3E+08 CFU/plate); “TMTC” with E. faecium ATCC 700221 (2x MIC (ACX-728 4, ACX-641 1, ACX-671 2, ACX-763 8, Linezolid 4 mg/L), inoculum 1.3E+07 CFU/plate); “TMTC” in the series with E. faecium ATCC 700221 (2x MIC (ACX-728 4, ACX-641 1, ACX-671 2, ACX-763 8, Linezolid 4 mg/L), inoculum 1.3E+08 CFU/plate); “TMTC” with E. faecium ATCC 700221 (4x MIC (ACX-728 8, ACX-641 2, ACX-671 4, ACX-763 16, Linezolid 8 mg/L), inoculum 1.3E+07 CFU/plate); “TMTC” in the series with E. faecium ATCC 700221 (4x MIC (ACX-728 8, ACX-641 2, ACX-671 4, ACX-763 16, Linezolid 8 mg/L), inoculum 1.3E+08 CFU/plate). Further, the “CFU total count (48h)” value in the series with E. faecium ATCC 700221 (8x MIC (ACX-728 16, ACX-641 4, ACX-671 8, ACX-763 32, Linezolid 16 mg/L), inoculum 1.3E+07 CFU/plate) was “TMTC”; with E. faecium ATCC 700221 (8x MIC (ACX-728 16, ACX-641 4, ACX-671 8, ACX-763 32, Linezolid 16 mg/L), inoculum 1.3E+08 CFU/plate), “TMTC”; with E. faecium ATCC 700221 (16x MIC (ACX-728 32, ACX-641 8, ACX-671 16, ACX-763 64, Linezolid 32 mg/L), inoculum 1.3E+07 CFU/plate), “TMTC”; in the series on E. faecium ATCC 700221 (16x MIC (ACX-728 32, ACX-641 8, ACX-671 16, ACX-763 64, Linezolid 32 mg/L), inoculum 1.3E+08 CFU/plate), “TMTC”. In addition, the “Number of reduced susceptible colonies” value with E. faecium ATCC 700221 (Fold MIC 2, 1.3E+07 cells plated) was “TMTC”; in the series on E. faecium ATCC 700221 (Fold MIC 2, 1.3E+08 cells plated), “TMTC”; in the series with E. faecium ATCC 700221 (Fold MIC 4, 1.3E+07 cells plated) it was “TMTC”; with E. faecium ATCC 700221 (Fold MIC 4, 1.3E+08 cells plated), “TMTC”; in the series with E. faecium ATCC 700221 (Fold MIC 8, 1.3E+07 cells plated), “TMTC”; in the series on E. faecium ATCC 700221 (Fold MIC 8, 1.3E+08 cells plated) it was “TMTC”. Also, the “Number of reduced susceptible colonies” value in the series with E. faecium ATCC 700221 (Fold MIC 16, 1.3E+07 cells plated) is “TMTC”; in the series on E. faecium ATCC 700221 (Fold MIC 16, 1.3E+08 cells plated), “TMTC”.
For the molecule `O=c1[nH]c(NCc2ccc3c(c2)OC(F)(F)O3)nc2c(F)nn(CCO)c12` [ACX-801, 5-(((2,2-difluorobenzo[d][1,3]dioxol-5-yl)methyl)amino)-3-fluoro-1-(2-hydroxyethyl)-1,6-dihydro-7H-pyrazolo[4,3-d]pyrimidin-7-one], the “rate of activity (slope of fluorescence intensity change over time)” value at E. faecium DnaE (inhibitor 2.5 uM) was 49.5 and 44.4 and 49.3; on E. faecium DnaE (inhibitor 4 uM), 51.3 and 51.4 and 45.3; on E. faecium DnaE (inhibitor 12.5 uM), 48.4 and 47.3 and 48.0; on E. faecium DnaE (inhibitor 20 uM), 47.8 and 51.2; on E. faecium DnaE (inhibitor 30 uM), 50.3 and 47.9 and 46.9; at E. faecium DnaE (inhibitor 45 uM), 47.9 and 46.1 and 47.4. Besides, the “rate of activity (slope of fluorescence intensity change over time)” value on E. faecium DnaE (inhibitor 67.5 uM) was 46.5 and 39.7 and 47.4; on E. faecium DnaE (inhibitor 100 uM), 45.5 and 39.2 and 38.1. Further, at E. faecium DnaE, the IC50 was more than 100 µM.

In general, IC50 refers to the concentration at which inhibition is half-maximal. Low values mean greater potency in that assay, high ones weaker potency in that assay. The MIC is the lowest concentration found to suppress growth.
